Data as given in patent US11807835B2, “Detergent compositions containing a stabilized enzyme by phosphonates” (ECOLAB USA INC., priority 2016, dated 2023).

Columns and labels:
lipase = assay: Lipase activity retention in detergent use solution (4000 ppm, 5 GPG water; p-nitrophenyl valerate, TRIS buffer pH 8.0); type: biochemical; settings: base formula, phosphonate at 0.1% elemental phosphorus, at 120º F. or at room temperature (as titled), time 240 min
Procedure: The enzyme […] collected up to 4 hours, after a use solution was generated from the detergent composition. During the tests, the samples at different time points were collected and immediately frozen in an acetone/dry ice bath and stored in −80° C. before the activity of the enzyme was evaluated. For the use of such an assay, t=0 min was the reference point for 100% enzyme activity.
(§1) Assays of enzyme activity in formulations (% retention) were conducted to simulate a presoak condition in a beaker using the chemistry, temperature, and pH conditions relevant to manual warewash or presoak applications. Enzyme activity is an indicator of the stability of the enzyme in the detergent, specifically in an aqueous use solution within a sump (which is under conditions of high pH, temperature and dilution).
(§2) Enzyme activity under presoak or manual warewash conditions was traced quantitatively using a standard protease assay. Samples were prepared under bench top conditions, whereby the use solution from a detergent composition or detergent was obtained and maintained at a presoak or manual warewash temperature in a stirring water bath. After the time course for assessing enzyme stability is initiated, aliquots were taken at various time points and flash-frozen. A time=0 sample was prepared for each series by dissolving the detergent formulation at room temperature, mixing thoroughly, and flash freezing. Samples were thawed and diluted as necessary in an assay buffer usually for use in the protease assay. A glycine buffer at pH 9.0 is used here. The assay monitored the direct reaction of the protease on a small, commercially available peptidyl substrate, with liberation of the product providing correlation to the active enzyme content. The product was detected using a plate reader with an appreciable dynamic range (upper absorbance limit of the instrument >3.5). Enzyme activity levels were assessed relative to a calibration curve with average values for replicate tests used to map protease stability under presoak or manual warewash use conditions. Enzyme retention at each time point was calculated as the % enzyme activity relative to the time=0 sample.
(§3) The analysis by lipase and amylase assay was conducted similarly, except with a different substrate and buffers. For lipase activity, the substrate is p-nitrophenyl valerate, and for amylase, the substrate is an ethylidene substrate (EPS). The buffer used in lipase assay is TRIS (Tris(hydroxymethyl)aminomethane) buffer at pH 8.0, and in amylase assay HEPES (4-(2-hydroxyethyl)-1-piperazineethanesulfonic acid) buffer at pH 8.0.

amylase = assay: Amylase activity retention in detergent use solution (4000 ppm, 5 GPG water; ethylidene substrate EPS, HEPES buffer pH 8.0); type: biochemical
Procedure: The enzyme activities in the detergents with different phosphonate levels were tested at 4000 ppm in 5 grains per gallon (GPG) water at 120° F. with various time points collected up to 4 hours, after a use solution was generated from the detergent composition. During the tests, the samples at different time points were collected and immediately frozen in an acetone/dry ice bath and stored in −80° C. before the activity of the enzyme was evaluated. For the use of such an assay, t=0 min was the reference point for 100% enzyme activity.
as §1, §2, §3

O=P(O)(O)CN(CP(=O)(O)O)CP(=O)(O)O [ATMP, Aminotri (methylene phosphonic acid)]
Relative Lipase Enzyme Activity (lipase): 15.64% | Relative Amylase Enzyme Activity (amylase; All Ash formula, phosphonate 0.3 wt-%, use solution at 120° F., time 0 min): 98.49% | Relative Amylase Enzyme Activity (amylase; All Ash formula, phosphonate 0.3 wt-%, use solution at 120° F., time 5 min): 100.00% | Relative Amylase Enzyme Activity (amylase; All Ash formula, phosphonate 0.3 wt-%, use solution at 120° F., time 10 min): 98.40% | Relative Amylase Enzyme Activity (amylase; All Ash formula, phosphonate 0.3 wt-%, use solution at 120° F., time 20 min): 97.90% | Relative Amylase Enzyme Activity (amylase; All Ash formula, phosphonate 0.3 wt-%, use solution at 120° F., time 40 min): 91.03% | Relative Amylase Enzyme Activity (amylase; All Ash formula, phosphonate 0.3 wt-%, use solution at 120° F., time 60 min): 86.91% | Relative Amylase Enzyme Activity (amylase; All Ash formula, phosphonate 0.3 wt-%, use solution at 120° F., time 90 min): 87.68% | Relative Amylase Enzyme Activity (amylase; All Ash formula, phosphonate 0.3 wt-%, use solution at 120° F., time 120 min): 80.93% | Relative Amylase Enzyme Activity (amylase; All Ash formula, phosphonate 0.3 wt-%, use solution at 120° F., time 150 min): 83.80% | Relative Amylase Enzyme Activity (amylase; All Ash formula, phosphonate 0.3 wt-%, use solution at 120° F., time 180 min): 80.91% | Relative Amylase Enzyme Activity (amylase; All Ash formula, phosphonate 0.3 wt-%, use solution at 120° F., time 210 min): 84.34% | Relative Amylase Enzyme Activity (amylase; All Ash formula, phosphonate 0.3 wt-%, use solution at 120° F., time 240 min): 83.21% | amylase stability in all ash formula (amylase; all ash formula, versus same composition with PBTC or HEDP without amine(s), FIG. 4D): more stable | Relative Amylase Enzyme Activity (amylase; base formula, phosphonate 0.3 wt-%, use solution at 120° F., time 0 min): 100.00% | Relative Amylase Enzyme Activity (amylase; base formula, phosphonate 0.3 wt-%, use solution at 120° F., time 5 min): 89.47% | Relative Amylase Enzyme Activity (amylase; base formula, phosphonate 0.3 wt-%, use solution at 120° F., time 10 min): 82.94% | Relative Amylase Enzyme Activity (amylase; base formula, phosphonate 0.3 wt-%, use solution at 120° F., time 20 min): 79.67% | Relative Amylase Enzyme Activity (amylase; base formula, phosphonate 0.3 wt-%, use solution at 120° F., time 40 min): 90.79% | Relative Amylase Enzyme Activity (amylase; base formula, phosphonate 0.3 wt-%, use solution at 120° F., time 60 min): 89.94% | Relative Amylase Enzyme Activity (amylase; base formula, phosphonate 0.3 wt-%, use solution at 120° F., time 90 min): 94.47% | Relative Amylase Enzyme Activity (amylase; base formula, phosphonate 0.3 wt-%, use solution at 120° F., time 120 min): 95.08% | Relative Amylase Enzyme Activity (amylase; base formula, phosphonate 0.3 wt-%, use solution at 120° F., time 150 min): 94.00% | Relative Amylase Enzyme Activity (amylase; base formula, phosphonate 0.3 wt-%, use solution at 120° F., time 180 min): 90.87% | Relative Amylase Enzyme Activity (amylase; base formula, phosphonate 0.3 wt-%, use solution at 120° F., time 210 min): 94.61% | Relative Amylase Enzyme Activity (amylase; base formula, phosphonate 0.3 wt-%, use solution at 120° F., time 240 min): 96.54% | Relative Amylase Enzyme Activity (amylase; base formula, phosphonate 0.6 wt-%, use solution at 120º F., time 0 min): 100.00% | Relative Amylase Enzyme Activity (amylase; base formula, phosphonate 0.6 wt-%, use solution at 120º F., time 5 min): 87.10% | Relative Amylase Enzyme Activity (amylase; base formula, phosphonate 0.6 wt-%, use solution at 120º F., time 10 min): 92.19% | Relative Amylase Enzyme Activity (amylase; base formula, phosphonate 0.6 wt-%, use solution at 120º F., time 20 min): 80.12% | Relative Amylase Enzyme Activity (amylase; base formula, phosphonate 0.6 wt-%, use solution at 120º F., time 40 min): 77.64% | Relative Amylase Enzyme Activity (amylase; base formula, phosphonate 0.6 wt-%, use solution at 120º F., time 60 min): 91.13% | Relative Amylase Enzyme Activity (amylase; base formula, phosphonate 0.6 wt-%, use solution at 120º F., time 90 min): 92.19% | Relative Amylase Enzyme Activity (amylase; base formula, phosphonate 0.6 wt-%, use solution at 120º F., time 120 min): 93.02% | Relative Amylase Enzyme Activity (amylase; base formula, phosphonate 0.6 wt-%, use solution at 120º F., time 150 min): 101.54% | Relative Amylase Enzyme Activity (amylase; base formula, phosphonate 0.6 wt-%, use solution at 120º F., time 180 min): 80.83% | Relative Amylase Enzyme Activity (amylase; base formula, phosphonate 0.6 wt-%, use solution at 120º F., time 210 min): 92.78% | Relative Amylase Enzyme Activity (amylase; base formula, phosphonate 0.6 wt-%, use solution at 120º F., time 240 min): 86.75% | Relative Amylase Enzyme Activity (amylase; base formula, phosphonate at 0.1% elemental phosphorus level, use solution at 120º F., time 0 min): 82.19% | Relative Amylase Enzyme Activity (amylase; base formula, phosphonate at 0.1% elemental phosphorus level, use solution at 120º F., time 5 min): 100.00% | Relative Amylase Enzyme Activity (amylase; base formula, phosphonate at 0.1% elemental phosphorus level, use solution at 120º F., time 10 min): 107.32% | Relative Amylase Enzyme Activity (amylase; base formula, phosphonate at 0.1% elemental phosphorus level, use solution at 120º F., time 20 min): 106.35% | Relative Amylase Enzyme Activity (amylase; base formula, phosphonate at 0.1% elemental phosphorus level, use solution at 120º F., time 40 min): 100.35% | Relative Amylase Enzyme Activity (amylase; base formula, phosphonate at 0.1% elemental phosphorus level, use solution at 120º F., time 60 min): 106.09% | Relative Amylase Enzyme Activity (amylase; base formula, phosphonate at 0.1% elemental phosphorus level, use solution at 120º F., time 90 min): 101.79% | Relative Amylase Enzyme Activity (amylase; base formula, phosphonate at 0.1% elemental phosphorus level, use solution at 120º F., time 120 min): 104.38% | Relative Amylase Enzyme Activity (amylase; base formula, phosphonate at 0.1% elemental phosphorus level, use solution at 120º F., time 150 min): 101.75% | Relative Amylase Enzyme Activity (amylase; base formula, phosphonate at 0.1% elemental phosphorus level, use solution at 120º F., time 180 min): 103.89% | Relative Amylase Enzyme Activity (amylase; base formula, phosphonate at 0.1% elemental phosphorus level, use solution at 120º F., time 210 min): 100.38% | Relative Amylase Enzyme Activity (amylase; base formula, phosphonate at 0.1% elemental phosphorus level, use solution at 120º F., time 240 min): 107.10%
